Experiments:
[1] = test system: Human lung cancer cell line A549; assay: MTT cell viability assay, A549; format: cell-based; conditions: A549, 72 h, read-out: IC50 antiproliferative activity A549
Description: (§1) Cell viability was measured using the 3-(4,5-dimethylthiazol-2-yl)-2,5-diphenyltetrazolium bromide (MTT) assay and was expressed as a ratio to the absorbance value at 570 nm of the control cells.

[2] = test system: Human liver cancer cell line HepG2; assay: MTT cell viability assay, HepG2; format: cell-based; conditions: HepG2, 72 h, read-out: IC50 antiproliferative activity HepG2
Description: as §1

[3] = test system: Human leukemia cell line K562; assay: MTT cell viability assay, K562; format: cell-based; conditions: K562, 72 h, read-out: IC50 antiproliferative activity K562
Description: as §1

[4] = test system: Human colon carcinoma cell line SW-620; assay: MTT cell viability assay, SW-620; format: cell-based; conditions: SW-620, 72 h, read-out: IC50 antiproliferative activity SW-620
Description: as §1

[5] = test system: Human glioblastoma cell line U251; assay: MTT cell viability assay, U251; format: cell-based; conditions: U-251, 72 h, read-out: IC50 antiproliferative activity U251
Description: as §1

[6] = test system: Human glioblastoma cell line U87; assay: MTT cell viability assay, U87; format: cell-based; conditions: 72 h, read-out: IC50 antiproliferative activity U87
Description: Human GBM U87 cell line was purchased from the American Type Culture Collection (ATCC). Cells were cultured in Dulbecco’s modified Eagle’s medium (DMEM) supplemented with 10% fetal bovine serum (FBS) and maintained in a 37°C, 5% CO2 incubator. After cells were routinely passaged at 2- to 3-day intervals, experiments were carried out when the cells entered exponential growth phase.
as §1

[7] = test system: Human glioma cell line SHG44; assay: MTT cell viability assay, SHG44; format: cell-based; conditions: SHG-44, 72 h, read-out: IC50 antiproliferative activity SHG44
Description: as §1

[8] = test system: Human glioma cell line LN229; assay: MTT cell viability assay, LN229; format: cell-based; conditions: LN-229, 72 h, read-out: IC50 antiproliferative activity LN229
Description: as §1

[9] = test system: Human umbilical vein endothelial cells HUVEC; assay: MTT cell viability assay, HUVEC; format: cell-based; conditions: Homo sapiens, HUVEC, 72 h, read-out: IC50 HUVEC
Description: as §1

[10] = test system: all eight cell lines; assay: Antiproliferative activity, panel of eight cancer cell lines (summary); format: cell-based; conditions: Homo sapiens, read-out: IC50 values against all eight cell lines
Description: Cells (5 × 10^4) were seeded into 96-well plates and exposed to vehicle (PBS) or different concentrations of compounds for 72 h. Cell viability was measured using the 3-(4,5-dimethylthiazol-2-yl)-2,5-diphenyltetrazolium bromide (MTT) assay and was expressed as a ratio to the absorbance value at 570 nm of the control cells.
As DMC-HA was identified as a potent novel inhibitor for HDACs, its antiproliferative activities on a panel of cancer cell lines and normal cells were evaluated, including four glioma cell lines, and the results are shown in Table 2. Vorinostat and curcumin were also tested as positive controls. […].

[11] = Hepatic microsome stability assay, human; format: in vitro ADME; conditions: human liver microsomes, NADPH, 37°C, pH 7.4
Description: (§2) Metabolic stability was assessed in the presence of human, mouse, and rat liver microsomes (XenoTech, Lenexa, KS, USA). All liquid dispenses and transfer steps were performed with the Freedom Evo automated liquid handler (Tecan US). Compound stock solutions were initially prepared in 100% DMSO and subsequently diluted in acetonitrile for the assay. The pH of the reactions was kept at 7.4 with potassium phosphate buffer. The reaction wells were prepared by adding microsomes to a well and allowed to warm to 37°C. Then, compound was added to each well. The reactions were […] by adding cofactor reduced nicotinamide adenine dinucleotide phosphate (NADPH) to the reaction well containing microsomes and compounds. Negative controls received buffer only. Immediately after reactions started, 0-min aliquots were promptly collected and mixed in a separate well with ice cold acetonitrile to quench the reactions. The remainder of the reaction volume was incubated at 37°C with shaking. An additional aliquot was collected at 60 min after the start of the reaction and promptly quenched with ice cold acetonitrile. Samples were vortexed and centrifuged at 3,500 rpm for 10 min. The amount of compound in the supernatant was determined by liquid chromatography–tandem mass spectrometry (LC/MS/MS) (Thermo Fischer Scientific, San Jose, CA, USA), and the percent of parent compound remaining after 60 min was calculated. Results are the mean of each reaction triplicate, normalized to the internal standard, and expressed as the percent of compound remaining after the incubation time.
(§3) Structures that are active in vitro may not be potent in vivo due to their susceptibility to metabolism in the body. We then thoroughly examined the liver microsomal metabolic stability of DMC-HA across three different species (Table 3). […] In addition, the half-life of DMC-HA in human microsome is generally two to three times longer than those in mice and rats. Collectively, the in vitro liver microsomal stability of DMC-HA is favorable, guaranteeing its further in vivo studies.

[12] = Hepatic microsome stability assay, mice; format: in vitro ADME; conditions: mouse liver microsomes, NADPH, 37°C, pH 7.4
Description: as §2, §3

[13] = Hepatic microsome stability assay, rat; format: in vitro ADME; conditions: rat liver microsomes, NADPH, 37°C, pH 7.4
Description: as §2, §3

[14] = test system: acetylated histone H3 in U87 cells; assay: Western blot analysis for H3-histone acetylation; format: cell-based, Human; conditions: various concentrations, 24 h
Description: U87 cells (5 × 10^5 cells/ml) in six-well plates were incubated with DMC-HA and lysed in radioimmunoprecipitation assay (RIPA) buffer containing protease and phosphatase inhibitors. Protein contents in the lysates were determined by Bradford’s assay, and 50 μg was separated by SDS polyacrylamide gel electrophoresis (SDS-PAGE) electrophoresis. Proteins were transferred to membranes and probed with human anti-acetylated H3 and anti-β actin antibodies as a loading control. Membranes were then labeled with the appropriate horseradish peroxidase (HRP)-conjugated immunoglobulin G (IgG), and protein bands were visualized using enhanced chemiluminescence. (Bio-Rad, Hercules, CA, USA).
Next, DMC-HA-induced acetylation of histone H3 in living cells was analyzed using Western blot method.

[15] = test system: U87 tumor xenograft; conditions: nude mice, 20 mg/kg once daily
Excerpt: Six-week-old BALB/c nude mice were purchased from Shanghai Experimental Animal Center of Chinese Academy of Science (Shanghai, China). All animal protocols were implemented according to the guidelines of the Association for Assessment and Accreditation of Laboratory Animal Care. U87 cells (3 × 10^6) were subcutaneously implanted into the right flank of mice. After 6 days of tumor growth, tumors grew to approximately 100 mm^3, and mice were randomly divided into three groups with nine animals in each group. […] The control group was intraperitoneally injected an equal volume of DMSO. Body weights and tumor volumes were measured every 2 days. After treatment, all of the mice were sacrificed, and the tumors were harvested, weighted, and photographed. The tumor volume was calculated according the formula: tumor volume = (length × width^2)/2.
U87 cells were subcutaneously inoculated into the right flank of mice.

[16] = biological target: SIRT1 (Homo sapiens, UniProt Q96EB6); assay: HDACs inhibition assay, SIRT1
Sequence of SIRT1 (Q96EB6 whole entry): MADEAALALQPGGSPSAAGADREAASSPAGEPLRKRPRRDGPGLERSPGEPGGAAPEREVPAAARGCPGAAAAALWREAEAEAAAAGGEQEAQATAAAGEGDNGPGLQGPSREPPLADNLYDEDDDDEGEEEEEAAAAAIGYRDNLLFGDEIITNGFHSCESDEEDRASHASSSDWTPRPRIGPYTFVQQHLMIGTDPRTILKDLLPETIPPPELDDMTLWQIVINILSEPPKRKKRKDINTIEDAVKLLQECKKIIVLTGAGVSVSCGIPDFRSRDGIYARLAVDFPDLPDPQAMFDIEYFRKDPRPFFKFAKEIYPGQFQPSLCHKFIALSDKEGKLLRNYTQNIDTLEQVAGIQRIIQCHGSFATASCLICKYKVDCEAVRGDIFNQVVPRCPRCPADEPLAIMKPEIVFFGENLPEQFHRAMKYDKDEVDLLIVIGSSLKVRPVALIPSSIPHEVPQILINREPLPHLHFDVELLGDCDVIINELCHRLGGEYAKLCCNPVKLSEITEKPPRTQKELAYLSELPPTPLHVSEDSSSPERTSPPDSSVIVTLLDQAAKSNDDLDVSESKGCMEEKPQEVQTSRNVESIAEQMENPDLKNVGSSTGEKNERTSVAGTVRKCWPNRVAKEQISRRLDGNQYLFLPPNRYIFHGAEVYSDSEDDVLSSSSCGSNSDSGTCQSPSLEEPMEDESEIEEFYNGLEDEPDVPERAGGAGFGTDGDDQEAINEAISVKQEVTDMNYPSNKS
Description: The inhibition assays for HDACs were carried out according to standard protocols. […] The reaction was stopped by the addition of 45 μl of 100 mM HEPES (pH 7.5) and 0.08% sodium dodecyl sulfate (SDS). The substrate and the product were then separated electrophoretically using a LabChip 3000 system (Caliper Life Sciences, Hopkinton, MA) with blue laser excitation and green fluorescence detection.

SMILES | IC50 [1] | IC50 [2] | IC50 [3] | IC50 [4] | IC50 [5] | IC50 [6] | IC50 [7] | IC50 [8] | IC50 [9] | IC50 [10] | microsomal CLint [11] | half-life ([11]; read-out: Human Liver Microsomal Stability T1/2) | microsomal CLint [12] | half-life ([12]; read-out: Mice Liver Microsomal Stability T1/2) | microsomal CLint [13] | half-life ([13]; read-out: Rat Liver Microsomal Stability T1/2) | acetylation of histone H3, dose dependence [14] | effects on the body weight [15] | toxicity during the administration period [15] | IC50 [16]
COc1cc(/C=C/C(=O)CC(=O)/C=C/c2ccc(O)c(OC)c2)ccc1O [Curcumin, reference compound] | 32.9 ± 3.99 µM | 18.3 ± 3.21 µM | 16.4 ± 1.23 µM | 49.2 ± 7.42 µM | 27.6 ± 3.11 µM | 31.9 ± 2.9 µM | 24.6 ± 4.52 µM | 21.9 ± 4.65 µM | 58.5 ± 7.92 µM | 16.4 to 49.2 µM | 82 µL/min/mg | 17.2 min | 92.9 µL/min/mg | 15.3 min | 138 µL/min/mg | 10.4 min |  |  |  | 
O=C(CCCCCCC(=O)Nc1ccccc1)NO [Vorinostat, suberoylanilide hydroxamic acid, reference compound] |  |  |  |  |  |  |  |  |  |  |  |  |  |  |  |  | dose dependently increased the acetylation of histone H3 | no effects on the body weight | no observable toxicity | > 10 µM

Source: PMC8602566 (Frontiers in Oncology, 2021)
